Data published in paper PMC8260228, “Two de novo GluN2B mutations affect multiple NMDAR-functions and instigate severe pediatric encephalopathy” (eLife, 2021).
Where two headings read alike, the source gives them in different places.

Experiments:
hGluN1a + hGluN2Bwt [1] = target: T1, hGluN1a + hGluN2Bwt (Homo sapiens, UniProt Q05586+Q13224); assay: Assessing potentiation by D-serine, TEVC in oocytes; settings: 100 μM D-serine, 5 mM glutamate, 1 μM glycine
GluN1 = system: GluN1; set-up: method as in Traynelis et al., 2010; settings: ref Traynelis et al., 2010; cited from earlier work
GRIN2A mutation D731N = system: GRIN2A mutation D731N; set-up: method as in Swanger et al., 2016; settings: ref Swanger et al., 2016; cited from earlier work
GluN2B-E413G = system: GluN2B-E413G; set-up: method as in Swanger et al., 2016; settings: read-out: glutamate potency EC50; ref Swanger et al., 2016; cited from earlier work
hGluN1a + hGluN2Bwt [2] = target: T1, hGluN1a + hGluN2Bwt; assay: Glutamate dose-response, TEVC in Xenopus oocytes; format: cell-based; set-up: expressed in transfected cells; host or cells: Xenopus laevis oocytes injected with in vitro transcribed mRNA (pCI-Neo plasmids produced by the Traynelis lab)
Text: All Experiments were approved by the Technion Institutional Animal Care and Use Committee (permit SB, no. IL-129-09-17). Xenopus laevis oocytes were harvested, prepared, and injected with mRNA as previously described ([Berlin et al., 2020]). Briefly, oocytes were obtained from anesthetized (by 0.4% tricaine solution) female frogs. Oocytes were extracted from ovaries, defolliculated by collagenase treatment in ND96 Ca^+2-free solution (in mM: 96 NaCl, 2 KCL, 1 MgCl2, 5 HEPES, pH 7.4) for about 45 min at RT. Cells were washed with ND96 Ca^+2 -free and transferred to enriched ND96 (NDE) consisting of ND96 supplemented with 1.8 mM CaCl2, 2.5 mM sodium pyruvate, 100 μg/ml streptomycin and 62.75 μg/ml penicillin. Stage V oocytes were manually isolated, incubated overnight at 18°C and injected with mRNA the next day.
For mRNA preparation, DNA plasmids were linearized by restriction enzymes (NotI), followed by in vitro mRNA transcription using mMessage-mMachine T7 kit (Thermo Scientific, Cat.#AM1344), as previously described ([Berlin et al., 2010]). mRNA concentrations were determined using a spectrophotometer. […]
Data were analyzed by Clampfit software (Molecular Devices, USA) and were fitted using Sygmaplot 11 (Systat software, inc) to Hill’s equation (Equation 1) from which we extracted EC50 values.

GluN2B-mutant = system: GluN2B-mutant; set-up: method as in Soto et al., 2019; settings: ref Soto et al., 2019; cited from earlier work
hGluN1a + hGluN2Bwt [3] = target: T1, hGluN1a + hGluN2Bwt; settings: read-out: Glycine EC50; 5 mM glutamate
Method: Two electrode voltage clamp (TEVC) recordings were carried-out 24–72 hr following mRNA injections, as previously described ([Berlin et al., 2011]). Recordings were performed using commercial amplifier (Warner Instruments, USA) and Digitizer (Digidata-1550B; Molecular Devices, USA), controlled by pClamp10 software (Molecular Devices, USA). Electrodes consisted of pulled glass capillaries (by puller- Narishige, Japan) with chlorinated silver wire, filled with 3M KCl. Oocytes were clamped to −60 mV and perfused with nominally Mg^+2-free barth solution (in mM): 100 NaCl, 0.3 BaCl2, 5 HEPES, pH 7.3 (adjusted with NaOH).
Data were analyzed by Clampfit software (Molecular Devices, USA) and were fitted using Sygmaplot 11 (Systat software, inc) to Hill’s equation (Equation 1) from which we extracted EC50 values. […] IC50 values for Mg^+2 and proton inhibition were extrapolated by fitting the results to Hill’s equation (Equation 4). τoff values for apparent open probability were extrapolated by fitting the result to a mono-exponential function (Equation 5). t10-90% results were obtained by placing cursors at beginning and end of responses, then automatically assessed by the Clampfit software (under statistics, positive going). mEPSCs were detected off-line using pCLAMP 10’s template search. Briefly, 5–10 ‘minis’ were identified and selected by user, followed by an automated search. […]

hGluN1a + hGluN2Bwt [4] = target: T1, hGluN1a + hGluN2Bwt; assay: Apparent open probability: MK-801 block kinetics, TEVC in oocytes; format: cell-based; set-up: expressed in transfected cells; host or cells: Xenopus laevis oocytes injected with in vitro transcribed mRNA (pCI-Neo plasmids produced by the Traynelis lab); settings: 1 μM MK-801 after 3 mM glutamate, 100 μM glycine
Method: MK-801 (activity-dependent pore blocker of GluNRs) was purchased from Alomone labs (cat.# M-230). One mM stock solutions were made by diluting lyophilized MK-801 in barth solution. […] Deactivation kinetics were fitted from which we extracted t10-90% or deactivation constant, τoff.
Data were analyzed by Clampfit software (Molecular Devices, USA) and were fitted using Sygmaplot 11 (Systat software, inc) to Hill’s equation (Equation 1) from which we extracted EC50 values. […] IC50 values for Mg^+2 and proton inhibition were extrapolated by fitting the results to Hill’s equation (Equation 4). τoff values for apparent open probability were extrapolated by fitting the result to a mono-exponential function (Equation 5). t10-90% results were obtained by placing cursors at beginning and end of responses, then automatically assessed by the Clampfit software (under statistics, positive going). mEPSCs were detected off-line using pCLAMP 10’s template search. Briefly, 5–10 ‘minis’ were identified and selected by user, followed by an automated search. All automatically identified minis were validated by user.

hGluN1a + hGluN2Bwt [5] = target: T1, hGluN1a + hGluN2Bwt; assay: Mg2+ dose-response (block), TEVC in Xenopus oocytes; format: cell-based; set-up: expressed in transfected cells; host or cells: Xenopus laevis oocytes injected with in vitro transcribed mRNA (pCI-Neo plasmids produced by the Traynelis lab); settings: 5 mM glutamate, 100 μM glycine, −60 mV; read-out: Mg^+2 IC50 (−60 mV)
hGluN1a + hGluN2Bwt [6] = target: T1, hGluN1a + hGluN2Bwt
Method: With the intent to rescue (i.e. increase) current amplitudes, we turned our attention toward spermine— a naturally-occurring and highly specific GluN2B-subunit potentiator ([Mony et al., 2009]; [Mony et al., 2011]). […] To further address this issue we employed arcaine-sulfate (a competitive antagonist of the polyamine site [[Gomes et al., 2014]; [Araneda et al., 1999]; [Reynolds, 1990]]).
Spermine was purchased from Sigma-Aldrich (Cat. #S3256). A total of 200 mM stock solutions were made by diluting powdered spermine in barth solution at different pHs (6.3 and 7.3). […] Arcaine sulfate was purchased from Alomone labs (Cat. # 14923-17-2). Ten mM solutions were made by diluting lyophilized Arcaine sulfate in barth solution at pH = 6.5.

GluN2B-subunit = settings: read-out: spermine reported EC50; ref Mony et al., 2011; cited from earlier work

T1 sequence (Q13224 27-1484, other chains not shown): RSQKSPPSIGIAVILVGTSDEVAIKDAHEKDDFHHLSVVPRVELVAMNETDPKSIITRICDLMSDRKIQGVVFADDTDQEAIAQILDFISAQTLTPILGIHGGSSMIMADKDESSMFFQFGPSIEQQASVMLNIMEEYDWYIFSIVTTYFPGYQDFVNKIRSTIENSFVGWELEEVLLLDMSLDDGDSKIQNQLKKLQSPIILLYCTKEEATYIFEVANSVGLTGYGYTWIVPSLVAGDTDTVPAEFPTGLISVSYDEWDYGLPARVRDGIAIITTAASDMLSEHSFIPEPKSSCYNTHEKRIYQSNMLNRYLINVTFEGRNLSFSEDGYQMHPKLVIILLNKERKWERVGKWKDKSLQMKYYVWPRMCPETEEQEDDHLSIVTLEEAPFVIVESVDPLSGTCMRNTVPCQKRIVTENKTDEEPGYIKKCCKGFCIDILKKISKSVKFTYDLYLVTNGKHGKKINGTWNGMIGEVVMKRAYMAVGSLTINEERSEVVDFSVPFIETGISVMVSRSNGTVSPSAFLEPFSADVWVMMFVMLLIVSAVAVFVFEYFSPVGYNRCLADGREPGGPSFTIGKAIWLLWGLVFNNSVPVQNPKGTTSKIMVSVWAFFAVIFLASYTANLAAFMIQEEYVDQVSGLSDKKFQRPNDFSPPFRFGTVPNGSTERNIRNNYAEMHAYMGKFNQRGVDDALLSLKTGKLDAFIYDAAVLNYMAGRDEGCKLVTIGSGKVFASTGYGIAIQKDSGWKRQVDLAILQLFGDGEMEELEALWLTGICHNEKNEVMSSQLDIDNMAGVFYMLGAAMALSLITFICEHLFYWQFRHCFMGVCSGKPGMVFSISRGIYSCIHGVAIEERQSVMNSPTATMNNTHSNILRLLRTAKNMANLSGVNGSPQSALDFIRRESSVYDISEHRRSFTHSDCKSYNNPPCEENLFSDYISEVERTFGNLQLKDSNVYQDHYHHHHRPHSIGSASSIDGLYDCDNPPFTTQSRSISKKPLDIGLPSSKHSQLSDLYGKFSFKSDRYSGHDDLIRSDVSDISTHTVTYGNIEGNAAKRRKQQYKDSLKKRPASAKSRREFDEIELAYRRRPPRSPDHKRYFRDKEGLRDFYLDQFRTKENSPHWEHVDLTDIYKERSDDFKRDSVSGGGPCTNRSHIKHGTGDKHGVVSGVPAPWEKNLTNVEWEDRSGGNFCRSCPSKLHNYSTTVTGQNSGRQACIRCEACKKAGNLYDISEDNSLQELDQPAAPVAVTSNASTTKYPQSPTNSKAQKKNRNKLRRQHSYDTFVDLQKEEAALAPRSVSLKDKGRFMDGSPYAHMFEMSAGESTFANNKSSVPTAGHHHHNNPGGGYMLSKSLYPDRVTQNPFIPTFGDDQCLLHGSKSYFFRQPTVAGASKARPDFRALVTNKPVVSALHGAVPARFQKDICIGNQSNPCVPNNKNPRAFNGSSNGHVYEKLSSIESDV

For `N[C@H](CO)C(=O)O` [D-serine], the “increase of the maximal current by D-serine” value (hGluN1a + hGluN2Bwt [1]) is listed as ~ 35% and the EC50 (GluN1) is listed as ~700 nM.

In the case of `N[C@@H](CCC(=O)O)C(=O)O` [Glutamate, glutamate], the “reduction in glutamate potency” value (GRIN2A mutation D731N) is listed as ~ 6000 fold, the EC50 (GluN2B-E413G) is listed as 79 ± 5.3 µM and the “Imax Norm. to wt” value (hGluN1a + hGluN2Bwt [2]; normalized maximal glutamate current, oocytes) is listed as 1 ± 0.08; (22). For the same molecule, the “contribution to the total current by excess glutamate >100 μM” value (hGluN1a + hGluN2Bwt [2]; receptors saturated at 100 μM glutamate) was < 15% and the “reduction in EC50” value (GluN2B-mutant) was ~ 7 fold.

For `NCC(=O)O` [Glycine, glycine], the EC50 (hGluN1a + hGluN2Bwt [3]) is listed as 230 ± 30 nM and the EC50 (GluN1) is listed as […].

For `C[C@]12N[C@H](Cc3ccccc31)c1ccccc12` [MK-801], the “10–90% inhibition rate” value (hGluN1a + hGluN2Bwt [4]) was 8554 ± 827 ms; (24) and the τoff (hGluN1a + hGluN2Bwt [4]; mono-exponential fit) was 4590 ± 603 ms; (24).

Molecule `[Mg+2]` [Mg^+2] has an IC50 (hGluN1a + hGluN2Bwt [5]) of 31 ± 3.7 µM.

With `NCCCNCCCCNCCCN` [spermine] the potentiation by spermine (hGluN1a + hGluN2Bwt [6]; 200 μM spermine, pH 6.3) was ~ 25 fold, the potentiation by spermine (hGluN1a + hGluN2Bwt [6]; 200 μM spermine, pH 7.3) was ~ 70% and the “current with spermine relative to basal glutamate current” value (hGluN1a + hGluN2Bwt [6]; 200 μM spermine, pH 7.3, 5 mM glutamate, 100 μM glycine) was 172%. For the same molecule, the “inhibition by higher spermine concentrations” value (hGluN1a + hGluN2Bwt [6]; pH 7.3) was “not observed” and the EC50 (GluN2B-subunit) was 200 µM.
